{
  "source": "patent US20180353457A1",
  "about": "“ABIETANE DITERPENOID 7-ACETOXYROYLEANONES FOR USE IN CANCER TREATMENT” (University of South Carolina, priority 2017, published 2018)",
  "key": {"[1]": {"test_system": "MG-63 (osteosarcoma) cells", "test": "MTS cytotoxicity assay, MG-63", "format": "cell-based", "details": "MG-63 cells, 48 and 72 hours of exposure", "text": "(§1) Human cell lines used included MG-63 (osteosarcoma), SK-OV-3 (ovarian adenocarcinoma), MDA-MB-231 (breast adenocarcinoma derived from a metastatic site), HCT 116 (colorectal carcinoma), HCT 116/200 (an FdUrd resistant subclone of HCT 116 cells), and A2780ADR (a doxorubicin resistant subclone of the ovarian carcinoma A2780). All cells were stored in liquid nitrogen until use. MG-63, SK-OV-3, MDA-MB-231, and HCT 116 cell lines were all obtained from ATCC. A2780ADR cells were obtained from Sigma-Aldrich. HCT 116/200 cells were obtained from Dr. Franklin G. Berger from the Center for Colon Cancer Research. MG-63 cells were maintained in MEM medium (Corning) supplemented with 10% Fetal Bovine Essence (VWR) and 1% penicillin/streptomycin solution (Corning). SK-OV-3 cells were maintained in McCoy's 5A Medium (Sigma) supplemented with Fetal Bovine Essence and 1% penicillin/streptomycin. […]\n(§2) Cells were first grown to approximately 80% confluency within […] tissue culture flasks (VWR). […] Cells were counted using a hemocytometer and their viability was confirmed using trypan blue (Gibco). […]\n(§3) In combination studies, 7-acetoxyroyleanone and FdUrd were first mixed into the same media and then added to the cells. […] The cells were incubated for 2 hours, and the absorbance of each well at 490 nm was measured using a Spectramax 190 microplate reader."}, "[2]": {"test_system": "MDA-MB-231 (breast adenocarcinoma) cells", "test": "MTS cytotoxicity assay, MDA-MB-231", "format": "cell-based", "details": "MDA-MB-231 cells", "text": "as §1, §2, §3"}, "[3]": {"test_system": "HCT 116 (colorectal carcinoma) cells", "test": "MTS cytotoxicity assay, HCT 116", "format": "cell-based", "details": "HCT 116 cells", "text": "as §1, §2, §3"}, "[4]": {"test_system": "NCI-60 panel of cancer cell lines", "details": "for GI50: across all 60 cell lines"}, "[5]": {"test_system": "SK-MEL-5 (melanoma) cells"}, "[6]": {"details": "48 and 72 hours of exposure, MTS"}},
  "note": "Like-named read-outs stand apart in the source and are kept apart here.",
  "data": [
    {"smiles": "CC(=O)O[C@@H]1C[C@H]2C(C)(C)CCC[C@]2(C)C2=C1C(=O)C(C(C)C)=C(O)C2=O", "note": "[7-acetoxyroyleanone]", "values": [
      {"measurement": "cytotoxicity (percent viability)", "setting": "[1]", "value": "significant cytotoxic properties"},
      {"measurement": "cell death at the lowest concentration tested", "setting": "[2]; 1 μg/mL", "value": "cell death was indicated"},
      {"measurement": "cytotoxicity (percent viability)", "setting": "[2]; [6]", "value": "significant cytotoxic properties"},
      {"measurement": "cell death at the lowest concentration tested", "setting": "[3]; 1 μg/mL", "value": "cell death was indicated"},
      {"measurement": "cytotoxicity (percent viability)", "setting": "[3]; [6]", "value": "significant cytotoxic properties"},
      {"measurement": "CC50", "setting": "[4]", "value": 11.5, "unit": "µM"},
      {"measurement": "average TGI concentration", "setting": "[4]; across the 50 cell lines with TGI within the range tested", "value": 6.69, "unit": "µM"},
      {"measurement": "GI50", "setting": "[4]; read-out: average GI50 concentration, five dose screen", "value": 1.27, "unit": "µM"},
      {"measurement": "GI50", "setting": "[4]; read-out: range of the GI50 concentrations", "value": 2.86, "unit": "µM"},
      {"measurement": "CC50", "setting": "[5]", "value": 4.34, "unit": "µM"}
    ]}
  ]
}
